Patent US5843983A, “Diphenylethane compounds containing a saturated heterocyclic group, their preparation, and their therapeutic use” (Sankyo Company, Limited, priority 1996, dated 1998)
Counter-ions that a name gives are not always drawn.

Assays:
squalene synthase = biological target: T1, squalene synthase (Rattus norvegicus, UniProt Q02769); assay: Squalene synthase inhibitory activity; format: biochemical; settings: rat liver microsome, 10 μM [4-^14 C]-FPP, pH 7.5, 37° C., 20 minutes; read-out: IC50 (50% inhibitory concentration)
T1 construct: The reaction was started by the addition of rat liver microsome suspension; from tissue; host or cells: rat liver microsomes
T1 sequence (Q02769 1-416): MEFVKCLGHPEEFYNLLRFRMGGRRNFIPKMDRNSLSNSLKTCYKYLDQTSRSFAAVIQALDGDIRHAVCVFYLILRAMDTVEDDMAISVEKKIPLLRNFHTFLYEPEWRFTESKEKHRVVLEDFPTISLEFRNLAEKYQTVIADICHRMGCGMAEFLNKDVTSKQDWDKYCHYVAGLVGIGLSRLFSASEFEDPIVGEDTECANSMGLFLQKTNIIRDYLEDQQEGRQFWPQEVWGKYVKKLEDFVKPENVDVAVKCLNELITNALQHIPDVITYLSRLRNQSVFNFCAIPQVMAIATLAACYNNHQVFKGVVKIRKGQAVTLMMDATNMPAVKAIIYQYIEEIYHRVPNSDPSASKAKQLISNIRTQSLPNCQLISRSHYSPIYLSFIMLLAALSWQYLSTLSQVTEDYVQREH
Description: Squalene synthase inhibitory activity Squalene synthase inhibitory activity was determined by the method described in U.S. Pat. […] Anal. Biochem. 203, 310 (1992). […] The reaction was started by the addition of rat liver microsome suspension. The reaction solution was then incubated in a thermostat at 37° C. for 20 minutes, after which the reaction was terminated by the addition of 100 μl of a 1:1 by volume mixture of 40% KOH (aqueous potassium hydroxide) and 95% EtOH (aqueous ethanol). The reaction solution thus treated was further heated at 65° C. for 30 minutes, and then cooled. Squalene was extracted with 2 ml of hexane. One milliliter of the resulting hexane layer was mixed with 10 ml of scintillator, and radioactivity was determined using a liquid scintillation counter. The inhibitory activity of each test compound for the enzyme was determined by co-incubation of the sample containing the test compound with the enzyme sample and substrate in the reaction solution.

serotonin receptors = assay: Receptor-binding experiment; design: species or system Male Wistar rats; settings: rat cerebral cortex membrane, ^3 H-ligand, 30° C., 1 hour; read-out: IC50 (concentration required to inhibit the binding by 50%)
Description: Receptor-binding experiment
The method of Leysen et al. [Mol. Pharmacol., 21, 301-314, (1982)] was employed. Male Wistar rats (body weight 280-320 g) were used in this experiment. The head of each animal was severed, and the cerebral cortex and corpus striatum were excised. These organs were frozen on dry ice and stored at -80° C. until used. Binding to serotonin receptors was examined using the cerebral cortex. To prepare a membrane suspension, the frozen brain tissue was homogenised with 50 mM Tris-HCl buffer (pH 7.7) using Polytron PT-20, and the homogenate was centrifuged at 49,000×gfor 10 minutes. The resulting pellet was suspending in a Tris buffer, centrifuged, and resuspended in Tris buffer. The content of protein in the membrane suspension thus prepared was determined, and adjusted to 0.57 mg/protein/ml with Tris buffer. The membrane suspension was stored at -80° C.
The receptor-binding reaction was started by adding 440 μl of the membrane suspension to a test tube containing 50 μl of ^3 H-ligand and 10 μl of each test compound (dissolved in dimethyl sulfoxide). After incubation at 30° C. for 1 hour, the reaction was terminated by filtration under reduced pressure using a Whatman GF/B glass filter. The filter was washed with ice-cooled Tris buffer (4 ml×2 times). The filter was then treated with ACS-II, and its radioactivity was determined with a liquid scintillation counter. Non-specific binding was determined in the presence of 20 μM atropine. The percent inhibition of receptorbinding was determined from the percent binding in the presence of each test compound. The concentration of each test compound required to inhibit the binding by 50% (IC50) was calculated from the least square regression line.

[1] = test system: smooth muscle contraction; assay: Vasoconstriction experiment (serotonin-induced contraction of tail artery helical strip); format: cell-based, Male SD rats; settings: rat tail artery strip, 3×10^-6 M serotonin, Tyrode's solution, 37° C.; read-out: IC50 (concentration required to reduce the tension to 50%)
Description: Vasoconstriction experiment
Effects on smooth muscle contraction were examined by the method of Van Neuten et al. [J. Pharmacol. Exp. Ther., 218, 217-230, (1981)]. Male SD rats, each weighing approximately 500 g, were sacrificed by exsanguination, and the tail artery was excised from each animal. Adherent tissues were removed from the artery for preparation of a helical strip of dimensions about 2×20 mm. The strip was suspended in an organ bath kept at 37° C. and containing 10 ml of Tyrode's solution saturated with a mixed gas (95% O2 /5% CO2) and equilibrated for 1 hour before used in the experiment. An initial tension of 0.5 g was loaded on the helical strip, and changes in tension were recorded in an isometric manner via a transducer. 3×10^-6 M of serotonin was added to the bath as a vasoconstriction inducer, and, after stabilisation of the contractile response of the specimen, a test compound was added to the bath so as to increase the level of test compound in the bath progressively, whilst monitoring the tension in the helical strip. 10^-4 M of papaverine was then added. On the assumption that the tension before the addition of each test compound was 100% and that the tension 5 minutes after the addition of papaverine was 0%, the concentration of each test compound required to reduce the tension to 50% (IC50) was calculated from the least square regression line.

Structure (SMILES)	IC50 (squalene synthase) [nM]	IC50 (serotonin receptors) [nM]	IC50 [1] [nM]
Cc1ccc(OCC[C@@H]2C[C@@H](O)CN2C)c(CCc2ccccc2)c1 [Example 12, (2R,4R)-4-Hydroxy-1-methyl-2-{2-[4-methyl-2-(2-phenylethyl)phenoxy]ethyl}pyrrolidine hydrochloride]	1500	–	–
COc1cc(CCc2cc(F)ccc2OCC[C@@H]2C[C@@H](O)CN2C)ccc1F [Example 4, (2R,4R)-2-[2-{4-Fluoro-2-[2-(4-fluoro-3-methoxyphenyl)ethyl]phenoxy}ethyl]-4-hydroxy-1-methylpyrrolidine hydrochloride]	1600	0.65	2.3
CN1C[C@H](O)C[C@H]1CCOc1ccc(F)cc1CCc1ccc(F)cc1 [Example 2, (2R,4R)-2-[2-{4-Fluoro-2-[2-(4-fluorophenyl)ethyl]phenoxy}ethyl]-4-hydroxy-1-methylpyrrolidine hydrochloride]	–	0.8	2
CN1C[C@H](O)C[C@H]1CCOc1ccc(F)cc1CCc1ccc(F)c(F)c1 [Example 7, (2R,4R)-2-[2-{2-[2-(3,4-Difluorophenyl)ethyl]-4-fluorophenoxy}ethyl]-4-hydroxy-1-methylpyrrolidine hydrochloride]	–	0.75	2.6
O[C@H]1CN[C@H](CCOc2ccc(F)cc2CCc2ccccc2)C1 [Example 5, (2R,4R)-2-{2-[4-Fluoro-2-(2-phenylethyl)phenoxy]ethyl}-4-hydroxypyrrolidinehydrochloride]	740	–	–
CN1C[C@H](O)C[C@H]1CCOc1ccc(F)cc1CCc1ccccc1 [Example 6, (2R,4R)-2-{2-[4-Fluoro-2-(2-phenylethyl)phenoxy]ethyl}-4-hydroxy-1-methylpyrrolidine hydrochloride]	1100	3.4	2.2
COc1cccc(CCc2cc(F)ccc2OCC[C@@H]2C[C@@H](O)CN2C)c1 [Example 1, (2R,4R)-2-[2-{4-Fluoro-2-[2-(3-methoxyphenyl)ethyl]phenoxy}ethyl]-4-hydroxy-1-methylpyrrolidine hydrochloride]	–	1	1.9
